Source: patent publication EP0587396A1, “Use of hypoxoside derivatives for the treatment of viral infections” (VIROSTAT (NA) NV, priority 1992, dated 1994)
Where two headings read alike, the source gives them in different places.

Columns and labels:
Assay type in all cases: cell-based
[1] = tested on: respiratory syncytial virus (RSV); experiment: Inhibition of RSV syncytium formation in Hep-2 cells
Method: Compound XVIII was added to Hep-2 cells growing as slope cultures in plastics tubes to give final concentrations respectively of 50, 100 and 200 µg/mℓ. The cultures were then respectively inoculated with a high standard viral dose, one tenth (1/10) of said standard dose, and one hundredth (1/100) of said standard dose of respiratory syncytial virus (RSV). After four days of incubation at 33°C the cells were visually inspected using an inverted phase contrast microscope and scored for the extent of syncytium formation, i.e. single cells containing three or more nuclei, as follows: a = 0 - 25%, b = 25 - 50%, c = 50 - 75% and d = 75 - 100% of cells having three or more nuclei.

[2] = tested on: human immunodeficiency virus type 1 (HIV-1); experiment: Inhibition of HIV-1 proliferation in PHA-activated human PBL's (p24 core protein by Sandwich ELISA, HIV RNA by labelled DNA probe hybridization); conditions: for inhibition at 50 µg/mL: read-out: % inhibition:HIV-RNA, 50 μg/mℓ; for inhibition at 100 µg/mL: read-out: % inhibition:HIV-RNA, 100 μg/mℓ
Method: Compounds I - XXVIII were subjected to in vitro testing for inhibition of human immunodeficiency virus type 1 (HIV-1) proliferation as follows:
Human peripheral blood lymphocytes (PBL's) obtained by density gradient centrifugation of blood from healthy volunteers at a blood bank were pooled and used for the propagation of HIV-1 in vitro.
The PBL's were polyclonally activated with phytohaemagglutinin (PHA) and subjected to quality controls whereby their viability was tested with Trypan blue exclusion and the expression of activation antigens, CD4⁺ and CD25⁺ was measured by immunofluorescence. Prior to adding the test substance, the activated PBL's were exposed to a standardized titre of HIV-1 virus and after incubation for 60 minutes the cells were washed twice and plated into microtitre plates at a concentration of 2X10⁶ cells/well. The medium contained interleukin-2 and in control wells the virus produced between 50 and 100 ng/mℓ of p24 core protein on day 4. The test substance was added to these cultures either in water or dimethyl sulphoxide (DMSO) depending on solubility characteristics. The final DMSO concentration, when used, was always 1% v/v.
HIV replication was measured as the production of p24 core protein and the production of HIV RNA on days 2, 3 and 4, or on days 3, 4, 5 and 6. Core protein p24 was measured using 'Sandwich ELISA' technology using inter alia a monoclonal antibody against p24 core protein. The HIV RNA was measured using a specific labelled DNA probe against HIV RNA and the process of hybridization.
Results were expressed as percent inhibition of HIV-1 p24 core protein production or RNA production on days 3, 4 or 6.
In each test, cells were also exposed to HIV-1 and 3'-azido-3'-deoxythymidine (also known as Zidovudine or AZT) at 100, 10, 1 and 0.1 ng/mℓ. This was a positive control and compounds tested were compared to the inhibitory effect of 10 ng/mℓ AZT.
In all of the following Tables, percentage inhibition refers to inhibition of p24 core protein production and HIV RNA production relative to infected controls. Percentage AZT inhibition refers to inhibition caused by 10 ng/mℓ AZT at the end of the experiment, i.e. after 4 or 6 days.

[3] = Toxicity: lymphocyte proliferation assay with MTT in the HIV-1 infected PBL cultures; conditions: human, pbls, Table 8 continued (6 days incubation), read-out: Proliferation as a percentage of control value
Method: Possible toxic effects of the test substances were measured by viability testing using Trypan blue or a proliferation assay using3-(4,5-dimethylthiazol-2-yl)-2,5-diphenyl-2H-tetrazolium bromide (MTT) on day 4 or day 6 after initiation of the experiment (Borenfreund et al: Toxicol. In Vitro, 1988, 2, 1-6).
The toxicity of the drug was expressed as a percentage inhibition of lymphocyte proliferation as measured with MTT and compared with controls receiving the virus but no drug.

[4] = as above; conditions: human, pbls, Table 8 (3 days incubation), read-out: Proliferation as a percentage of control value
cytomegalo-virus (CMV) = experiment: Cytopathic effect of CMV in primary foetal human fibroblasts
Method: (§1) Compound XVII was added to primary foetal human fibroblasts in tissue culture, to yield final concentrations respectively of 50, 100 and 200 µg/mℓ. The cultures were then respectively inoculated with a high standard viral dose, with one tenth (1/10) of said standard dose and with one fiftieth (1/50) of said standard dose of cytomegalo-virus (CMV) and incubated for four days.
The cytopathic effect of CMV was determined by microscopic visual inspection of the cell cultures, in terms of the extent of gross swelling of the cells, where: a = 0 - 25%, b = 25 - 50%, c = 50 - 75% and d = 75 - 100% of the cells affected by gross swelling.

[5] = tested on: primary foetal human fibroblasts; experiment: Signs of toxicity in the fibroblast cultures of the CMV test; conditions: 200 µg/mℓ
Method: as §1

[6] = Human immunodeficiency virus 1, 72 h, 3 days incubation
[7] = Human immunodeficiency virus 1, 144 h, 6 days incubation

SMILES: O=S(=O)(O)Oc1ccc(C#CC/C=C/c2ccc(OS(=O)(=O)O)c(O)c2)cc1O [Compound XVII]
- Extent of Syncytium Formation ([1]; 50 µg/mℓ, viral dose 1/10, 4 days at 33°C (virus control c)): c (c = 50 - 75%)
- Extent of Syncytium Formation ([1]; 50 µg/mℓ, viral dose 1/100, 4 days at 33°C (virus control b)): a (a = 0 - 25%)
- Extent of Syncytium Formation ([1]; 50 µg/mℓ, viral dose Full, 4 days at 33°C (virus control d)): d (d = 75 - 100% of cells having three or more nuclei)
- Extent of Syncytium Formation ([1]; 100 µg/mℓ, viral dose 1/10, 4 days at 33°C (virus control c)): a (a = 0 - 25%)
- Extent of Syncytium Formation ([1]; 100 µg/mℓ, viral dose 1/100, 4 days at 33°C (virus control b)): Nil
- Extent of Syncytium Formation ([1]; 100 µg/mℓ, viral dose Full, 4 days at 33°C (virus control d)): c (c = 50 - 75%)
- Extent of Syncytium Formation ([1]; 200 µg/mℓ, viral dose 1/10, 4 days at 33°C (virus control c)): Nil
- Extent of Syncytium Formation ([1]; 200 µg/mℓ, viral dose 1/100, 4 days at 33°C (virus control b)): Nil
- Extent of Syncytium Formation ([1]; 200 µg/mℓ, viral dose Full, 4 days at 33°C (virus control d)): Nil
- % inhibition:p24 core protein ([2]; 50 μg/mℓ, 3 days incubation): 47%
- % inhibition:p24 core protein ([2]; 50 μg/mℓ, 6 days incubation): 87%
- % inhibition:p24 core protein ([2]; 100 μg/mℓ, 3 days incubation): 88%
- inhibition at 50 µg/mL [2, 6]: 68%
- inhibition at 100 µg/mL [2, 6]: 93%
- inhibition at 50 µg/mL [2, 7]: 91%
- inhibition at 100 µg/mL [2, 7]: 100%
- viability ([3]; 50 μg/mℓ): 96%
- viability ([3]; 100 μg/mℓ): 94%
- viability ([4]; 50 μg/mℓ): 84%
- viability ([4]; 100 μg/mℓ): 80%
- Extent of the Cytopathic Effect of Cytomegalo-Virus (cytomegalo-virus (CMV); 50 µg/mℓ, viral dose 1/10, 4 days of incubation (virus control b+)): b (b = 25 - 50%)
- Extent of the Cytopathic Effect of Cytomegalo-Virus (cytomegalo-virus (CMV); 50 µg/mℓ, viral dose 1/50, 4 days of incubation (virus control a)): a (a = 0 - 25%)
- Extent of the Cytopathic Effect of Cytomegalo-Virus (cytomegalo-virus (CMV); 50 µg/mℓ, viral dose Full, 4 days of incubation (virus control c)): bc
- Extent of the Cytopathic Effect of Cytomegalo-Virus (cytomegalo-virus (CMV); 100 µg/mℓ, viral dose 1/10, 4 days of incubation (virus control b+)): ab
- Extent of the Cytopathic Effect of Cytomegalo-Virus (cytomegalo-virus (CMV); 100 µg/mℓ, viral dose 1/50, 4 days of incubation (virus control a)): a-
- Extent of the Cytopathic Effect of Cytomegalo-Virus (cytomegalo-virus (CMV); 100 µg/mℓ, viral dose Full, 4 days of incubation (virus control c)): bc
- Extent of the Cytopathic Effect of Cytomegalo-Virus (cytomegalo-virus (CMV); 200 µg/mℓ, viral dose 1/10, 4 days of incubation (virus control b+)): Nil
- Extent of the Cytopathic Effect of Cytomegalo-Virus (cytomegalo-virus (CMV); 200 µg/mℓ, viral dose 1/50, 4 days of incubation (virus control a)): Nil
- Extent of the Cytopathic Effect of Cytomegalo-Virus (cytomegalo-virus (CMV); 200 µg/mℓ, viral dose Full, 4 days of incubation (virus control c)): Nil
- cultures showing signs of toxicity due to the compound [5]: 5 out of 8
